Experimental data published in the supplement of paper PMC10627819.
Values after ≈ are worked out from the molar mass of the structure shown.

Assays:
S. aureus DSM 20231 [1] = test system: S. aureus DSM 20231
S. aureus Newman [2] = test system: S. aureus Newman
S. pneumoniae D39V [3] = test system: S. pneumoniae D39V
B. subtilis 168 [4] = test: fitness (endpoint OD595 vs no drug) (fraction); higher = more growth
Procedure, shortened: (§1)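 At 37 °C, bacteria in TSB, LB Lennox or CY were grown in 384-well plates from a starting OD595 of 0.01. OD595 was measured every 30 min for 14 h, with the first reading used as background. Fitness is the optical density at the switch to stationary phase as a fraction of the robust mean of no-drug control wells, capped at 1.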

S. aureus DSM 20231 [5] = test: as above
Procedure, shortened: as §1

S. aureus Newman [6] = test: as above
Procedure, shortened: as §1

S. pneumoniae D39V [7] = test: as above
Procedure, shortened: as §1

B. subtilis 168 [8] = test system: B. subtilis 168

In the case of CC(=O)OC[C@H]1O[C@@H]([S-])[C@H](OC(C)=O)[C@@H](OC(C)=O)[C@@H]1OC(C)=O.CCP(CC)CC.[Au+] [Auranofin], the MIC (S. aureus DSM 20231 [1]) is reported as 0.5 µg/mL and the MIC (S. aureus Newman [2]) is reported as 0.5 µg/mL.

O=C(N[C@H](CO)[C@H](O)c1ccc([N+](=O)[O-])cc1)C(Cl)Cl [Chloramphenicol] gave an MIC (S. aureus DSM 20231 [1]) of 3.5 µg/mL (≈ 10.8 µM), an MIC (S. aureus Newman [2]) of 3 µg/mL (≈ 9.28 µM) and an MIC (S. pneumoniae D39V [3]) of 2 µg/mL (≈ 6.19 µM). It also gave a fitness (B. subtilis 168 [4]; 0.5 µg/mL) of 0.834, a fitness (B. subtilis 168 [4]; 1 µg/mL) of 0.659 and a fitness (S. aureus DSM 20231 [5]; 0.75 µg/mL) of 0.878. For the same molecule, the fitness (S. aureus DSM 20231 [5]; 1.5 µg/mL) was 0.711, the fitness (S. aureus DSM 20231 [5]; 3 µg/mL) was 0.0899 and the fitness (S. aureus Newman [6]; 0.75 µg/mL) was 0.804. It also gave a fitness (S. aureus Newman [6]; 1.5 µg/mL) of 0.514, a fitness (S. aureus Newman [6]; 3 µg/mL) of 0.126 and a fitness (S. pneumoniae D39V [7]; 0.375 µg/mL) of 0.893. For the same molecule, the fitness (S. pneumoniae D39V [7]; 0.75 µg/mL) was 0.722 and the fitness (S. pneumoniae D39V [7]; 1.5 µg/mL) was 0.407.

CC[C@H]1OC(=O)[C@H](C)[C@@H](O[C@H]2C[C@@](C)(OC)[C@@H](O)[C@H](C)O2)[C@H](C)[C@@H](O[C@@H]2O[C@H](C)C[C@H](N(C)C)[C@H]2O)[C@](C)(OC)C[C@@H](C)C(=O)[C@H](C)[C@@H](O)[C@]1(C)O [Clarithromycin] was tested, and the MIC (S. aureus DSM 20231 [1]) was 0.234 µg/mL (≈ 0.313 µM), the MIC (S. aureus Newman [2]) was 0.5 µg/mL (≈ 0.668 µM) and the MIC (S. pneumoniae D39V [3]) was 0.5 µg/mL (≈ 0.668 µM). For the same molecule, the fitness (S. aureus DSM 20231 [5]; 0.0585 µg/mL) was 0.94, the fitness (S. aureus DSM 20231 [5]; 0.117 µg/mL) was 0.691 and the fitness (S. aureus DSM 20231 [5]; 0.234 µg/mL) was 0.0857. The fitness (S. pneumoniae D39V [7]; 0.0625 µg/mL) was 0.568, the fitness (S. pneumoniae D39V [7]; 0.125 µg/mL) was 0.346 and the fitness (S. pneumoniae D39V [7]; 0.25 µg/mL) was 0.148.

CCC[C@@H]1C[C@@H](C(=O)N[C@@H]([C@H]2O[C@H](SC)[C@H](O)[C@@H](O)[C@H]2O)[C@H](C)Cl)N(C)C1 [Clindamycin] showed an MIC (B. subtilis 168 [8]) of 1 µg/mL (≈ 2.35 µM), an MIC (S. aureus DSM 20231 [1]) of 0.125 µg/mL (≈ 0.294 µM) and an MIC (S. aureus Newman [2]) of 0.125 µg/mL (≈ 0.294 µM). The MIC (S. pneumoniae D39V [3]) was 0.125 µg/mL (≈ 0.294 µM), the fitness (B. subtilis 168 [4]; 0.0625 µg/mL) was 0.596 and the fitness (B. subtilis 168 [4]; 0.125 µg/mL) was 0.432. The fitness (B. subtilis 168 [4]; 0.25 µg/mL) was 0.393, the fitness (S. aureus DSM 20231 [5]; 0.0312 µg/mL) was 0.747 and the fitness (S. aureus DSM 20231 [5]; 0.0625 µg/mL) was 0.246. The fitness (S. aureus DSM 20231 [5]; 0.125 µg/mL) was 0.0653, the fitness (S. aureus Newman [6]; 0.0312 µg/mL) was 0.775 and the fitness (S. aureus Newman [6]; 0.0625 µg/mL) was 0.432. For the same molecule, the fitness (S. aureus Newman [6]; 0.125 µg/mL) was 0.108, the fitness (S. pneumoniae D39V [7]; 0.015 µg/mL) was 0.869 and the fitness (S. pneumoniae D39V [7]; 0.03 µg/mL) was 0.682. It also gave a fitness (S. pneumoniae D39V [7]; 0.06 µg/mL) of 0.456.

N[C@@H]1CONC1=O [Cycloserine D] gave an MIC (B. subtilis 168 [8]) of 0.5 µg/mL (≈ 4.9 µM), an MIC (S. aureus DSM 20231 [1]) of 1.5 µg/mL (≈ 14.7 µM) and an MIC (S. aureus Newman [2]) of 1.5 µg/mL (≈ 14.7 µM). The MIC (S. pneumoniae D39V [3]) was 8.75 µg/mL (≈ 85.7 µM), the fitness (B. subtilis 168 [4]; 0.125 µg/mL) was 0.963 and the fitness (B. subtilis 168 [4]; 0.25 µg/mL) was 0.948. For the same molecule, the fitness (B. subtilis 168 [4]; 0.5 µg/mL) was 0.966, the fitness (S. aureus DSM 20231 [5]; 0.375 µg/mL) was ≥ 1 and the fitness (S. aureus DSM 20231 [5]; 0.75 µg/mL) was ≥ 1. For the same molecule, the fitness (S. aureus DSM 20231 [5]; 1.5 µg/mL) was ≥ 1, the fitness (S. aureus Newman [6]; 0.375 µg/mL) was ≥ 1 and the fitness (S. aureus Newman [6]; 0.75 µg/mL) was ≥ 1. The fitness (S. aureus Newman [6]; 1.5 µg/mL) was 0.983, the fitness (S. pneumoniae D39V [7]; 2.188 µg/mL) was 0.872 and the fitness (S. pneumoniae D39V [7]; 4.375 µg/mL) was 0.81. It also gave a fitness (S. pneumoniae D39V [7]; 8.75 µg/mL) of 0.533.

O=C(O[C@@H]1Cc2c(O)cc(O)cc2O[C@@H]1c1cc(O)c(O)c(O)c1)c1cc(O)c(O)c(O)c1 [EGCG] was tested, and the MIC (B. subtilis 168 [8]) was 50 µg/mL (≈ 109 µM), the MIC (S. aureus DSM 20231 [1]) was 50 µg/mL (≈ 109 µM) and the MIC (S. aureus Newman [2]) was 50 µg/mL (≈ 109 µM). It also gave an MIC (S. pneumoniae D39V [3]) of 400 µg/mL (≈ 873 µM), a fitness (B. subtilis 168 [4]; 6.25 µg/mL) of 0.91 and a fitness (B. subtilis 168 [4]; 12.5 µg/mL) of 0.709. For the same molecule, the fitness (B. subtilis 168 [4]; 25 µg/mL) was 0.34, the fitness (S. aureus DSM 20231 [5]; 12.5 µg/mL) was 0.841 and the fitness (S. aureus DSM 20231 [5]; 25 µg/mL) was 0.776. For the same molecule, the fitness (S. aureus DSM 20231 [5]; 50 µg/mL) was 0.795, the fitness (S. aureus Newman [6]; 12.5 µg/mL) was 0.778 and the fitness (S. aureus Newman [6]; 25 µg/mL) was 0.714. The fitness (S. aureus Newman [6]; 50 µg/mL) was 0.671, the fitness (S. pneumoniae D39V [7]; 12.5 µg/mL) was 0.946 and the fitness (S. pneumoniae D39V [7]; 25 µg/mL) was 0.964. For the same molecule, the fitness (S. pneumoniae D39V [7]; 50 µg/mL) was 0.987.

Molecule CC(=O)O[C@H]1C[C@@]2(C)[C@@H](C[C@@H](O)[C@H]3[C@@]4(C)CC[C@@H](O)[C@@H](C)[C@@H]4CC[C@@]32C)/C1=C(\CCC=C(C)C)C(=O)O [Fusidic acid] has an MIC (B. subtilis 168 [8]) of 0.5 µg/mL (≈ 0.968 µM), an MIC (S. aureus Newman [2]) of 0.139 µg/mL (≈ 0.269 µM) and an MIC (S. pneumoniae D39V [3]) of 4 µg/mL (≈ 7.74 µM).

Work on C[C@@H](O)[C@H]1C(=O)N2C(C(=O)O)=C(SCCNC=N)C[C@H]12 [Imipenem] yielded an MIC (B. subtilis 168 [8]) of 0.5 µg/mL (≈ 1.67 µM), an MIC (S. pneumoniae D39V [3]) of 0.062 µg/mL (≈ 0.207 µM) and a fitness (B. subtilis 168 [4]; 0.0625 µg/mL) of 0.857. It also gave a fitness (B. subtilis 168 [4]; 0.125 µg/mL) of 0.751, a fitness (B. subtilis 168 [4]; 0.25 µg/mL) of 0.466 and a fitness (S. pneumoniae D39V [7]; 0.005 µg/mL) of 0.961. The fitness (S. pneumoniae D39V [7]; 0.01 µg/mL) was 0.95 and the fitness (S. pneumoniae D39V [7]; 0.02 µg/mL) was 0.943.
